Patent publication US6403633B2, “Heteroaryl amidines, methylamidines and guanidines, and use thereof as protease inhibitors” (3-Dimensional Pharmaceuticals, Inc., priority 1998, dated 2002)
pKi: −log10 of the molar value. Counter-ions that a name gives are not always drawn.

Key:
Format in all cases: biochemical
[1] = molecular target: T1, human plasmin (Homo sapiens, UniProt P00747); assay: In vitro inhibition of purified enzymes, Ki determination: plasmin; conditions: substrate N-p-Tosyl-Gly-Pro-Lys-p-nitroanilide 37 μM, [Plasmin]=8 nM, pH 7.5, 37° C.
T1 construct: purchased Enzyme Research Laboratories
Excerpt: (§1) Reagents: All buffer salts were obtained from Sigma Chemical Company (St. Louis, Mo.), and were of the highest purity available. The enzyme substrates, N-benzoyl-Phe-Val-Arg-p-nitroanilide (Sigma B7632), N-benzoyl-Ile-Glu-Gly-Arg-p-nitroanilide hydrochloride (Sigma B2291), N-p-tosyl-Gly-Pro-Lys-p-nitroanilide (Sigma T6140), N-succinyl-Ala-Ala-Pro-Phe-p-nitroanilide (Sigma S7388) and N-CBZ-Val-Gly-Arg-p-nitroanilide (Sigma C7271) were obtained from Sigma. N-Succinyl-Ala-Ala-Pro-Arg-p-nitroanilide (BACHEM L-1720) and N-succinyl-Ala-Ala-Pro-Val-p-nitroanilide (BACHEM L-1770) were obtained from BACHEM (King of Prussia, Pa).
(§2) Human α-thrombin, human factor Xa and human plasmin were obtained from Enzyme Research Laboratories (South Bend, Ind.). […] In general, substrate concentrations are lower than the experimentally determined value for Km. […]
(§3) In a typical Ki determination, into each well of a 96 well plate is pipetted 280 μL of substrate solution, 10 μL of test compound solution, and the plate allowed to thermally equilibrate at 37° C. in a Molecular Devices plate reader for >15 minutes. Reactions were initiated by the addition of a 10 μL aliquot of enzyme and the absorbance increase at 405 nm is recorded for 15 minutes. […] The data are fit to a linear regression, and the value of the slope of the line calculated. The inverse of the slope is the experimentally determined Ki value. […]

[2] = molecular target: tPA (Homo sapiens, UniProt P00750); assay: In vitro inhibition of purified enzymes, Ki determination: tPA; conditions: no enzyme-specific conditions printed
Excerpt: (§4) Human α-thrombin, human factor Xa and human plasmin were obtained from Enzyme Research Laboratories (South Bend, Ind.). Bovine α-chymotrypsin (Sigma C4129), bovine trypsin (Sigma T8642) and human kidney cell urokinase (Sigma U5004) were obtained from Sigma. Human leukocyte elastase was obtained from Elastin Products (Pacific, Mo.). Ki Determinations: All assays are based on the ability of the test compound to inhibit the enzyme catalyzed hydrolysis of a peptide p-nitroanilide substrate. […] The final concentrations for each of the substrates is listed below. In general, substrate concentrations are lower than the experimentally determined value for Km. […]
as §3, with “The ratio of the velocity (rate of change in absorbance as a function of time) for a sample containing no test compound is divided by the velocity of a sample containing test compound, and is plotted as a function of test compound concentration. The” for “The”, “calculated.” for “calculated. The inverse of the slope is the experimentally determined Ki value.”

[3] = molecular target: T2, human factor Xa (Homo sapiens, UniProt P00742); assay: In vitro inhibition of purified enzymes, Ki determination: Factor Xa; conditions: substrate N-benzoyl-Ile-Glu-Gly-Arg-p-nitroanilide hydrochloride 51 μM, [FXa]=10 nM, pH 7.5, 37° C.
T2 construct: purchased Enzyme Research Laboratories
Excerpt: as §1, §2, §3

[4] = molecular target: T3, C1S (Homo sapiens, UniProt P09871); assay: In vitro inhibition of purified enzymes, Ki determination: C1S; conditions: no enzyme-specific conditions printed
T3 sequence (P09871 16-688): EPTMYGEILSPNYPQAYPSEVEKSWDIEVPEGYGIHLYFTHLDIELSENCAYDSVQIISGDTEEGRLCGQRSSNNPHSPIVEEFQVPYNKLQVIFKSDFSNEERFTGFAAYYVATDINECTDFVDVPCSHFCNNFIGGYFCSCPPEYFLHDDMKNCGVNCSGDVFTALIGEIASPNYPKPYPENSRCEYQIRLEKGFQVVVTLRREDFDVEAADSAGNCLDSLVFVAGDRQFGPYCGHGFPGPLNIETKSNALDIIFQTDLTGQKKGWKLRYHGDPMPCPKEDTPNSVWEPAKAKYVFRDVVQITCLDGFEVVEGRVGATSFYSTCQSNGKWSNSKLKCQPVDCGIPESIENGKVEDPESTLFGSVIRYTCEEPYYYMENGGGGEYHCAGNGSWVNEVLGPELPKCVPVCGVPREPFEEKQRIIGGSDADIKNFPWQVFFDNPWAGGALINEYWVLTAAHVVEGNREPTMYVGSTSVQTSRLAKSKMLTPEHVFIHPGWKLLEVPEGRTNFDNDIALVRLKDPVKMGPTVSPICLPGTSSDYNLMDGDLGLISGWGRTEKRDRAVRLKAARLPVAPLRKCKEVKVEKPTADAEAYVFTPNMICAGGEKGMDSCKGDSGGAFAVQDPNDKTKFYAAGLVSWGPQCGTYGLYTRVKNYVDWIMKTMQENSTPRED
Excerpt: as §4
as §3, with “The ratio of the velocity (rate of change in absorbance as a function of time) for a sample containing no test compound is divided by the velocity of a sample containing test compound, and is plotted as a function of test compound concentration. The” for “The”, “calculated.” for “calculated. The inverse of the slope is the experimentally determined Ki value.”

[5] = molecular target: T4, Bovine α-chymotrypsin (Bos taurus, UniProt P00766); assay: In vitro inhibition of purified enzymes, Ki determination: chymotrypsin; conditions: substrate N-succinyl-Ala-Ala-Pro-Phe-p-nitroanilide 14 μM, [Chymotrypsin]=2.7 nM, pH 7.5, 37° C.
T4 construct: purchased Sigma C4129
Excerpt: as §1, §2, §3

T2 sequence (P00742 235-488 limits assumed): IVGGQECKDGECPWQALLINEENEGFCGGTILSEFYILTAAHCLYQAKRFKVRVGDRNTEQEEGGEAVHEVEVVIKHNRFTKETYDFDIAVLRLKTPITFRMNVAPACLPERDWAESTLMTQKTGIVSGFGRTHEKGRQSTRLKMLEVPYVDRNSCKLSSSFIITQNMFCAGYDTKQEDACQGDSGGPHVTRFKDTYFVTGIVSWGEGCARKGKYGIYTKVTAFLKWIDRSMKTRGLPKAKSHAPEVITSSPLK
T2 sequence (P00742 41-179 partner limits assumed): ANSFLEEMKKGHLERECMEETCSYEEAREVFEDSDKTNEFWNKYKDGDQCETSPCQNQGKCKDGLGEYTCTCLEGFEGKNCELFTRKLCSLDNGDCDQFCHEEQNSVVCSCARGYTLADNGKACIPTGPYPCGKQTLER
T1 sequence (P00747 581-810 limits assumed): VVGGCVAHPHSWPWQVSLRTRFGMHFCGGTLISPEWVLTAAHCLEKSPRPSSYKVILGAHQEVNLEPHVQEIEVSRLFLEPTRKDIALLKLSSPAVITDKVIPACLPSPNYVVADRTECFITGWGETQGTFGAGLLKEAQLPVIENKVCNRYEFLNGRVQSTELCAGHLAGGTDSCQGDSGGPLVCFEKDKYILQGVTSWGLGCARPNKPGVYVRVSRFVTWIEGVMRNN
T1 sequence (P00747 97-580 partner limits assumed): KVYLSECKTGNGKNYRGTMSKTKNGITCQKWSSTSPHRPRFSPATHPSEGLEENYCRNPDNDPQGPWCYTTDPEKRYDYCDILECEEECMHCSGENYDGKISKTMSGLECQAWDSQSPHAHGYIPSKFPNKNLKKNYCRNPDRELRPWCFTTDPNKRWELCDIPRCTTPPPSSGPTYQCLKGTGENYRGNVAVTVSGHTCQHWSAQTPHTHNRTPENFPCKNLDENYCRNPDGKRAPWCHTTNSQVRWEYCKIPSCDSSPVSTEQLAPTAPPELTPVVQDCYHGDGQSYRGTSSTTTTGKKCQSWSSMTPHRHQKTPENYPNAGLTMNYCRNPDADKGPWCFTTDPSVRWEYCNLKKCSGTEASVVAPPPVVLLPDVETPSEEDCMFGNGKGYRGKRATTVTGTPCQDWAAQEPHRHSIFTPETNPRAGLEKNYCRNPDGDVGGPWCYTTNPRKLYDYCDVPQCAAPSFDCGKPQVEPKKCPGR
tPA, sequence (P00750 36-562, species assumed): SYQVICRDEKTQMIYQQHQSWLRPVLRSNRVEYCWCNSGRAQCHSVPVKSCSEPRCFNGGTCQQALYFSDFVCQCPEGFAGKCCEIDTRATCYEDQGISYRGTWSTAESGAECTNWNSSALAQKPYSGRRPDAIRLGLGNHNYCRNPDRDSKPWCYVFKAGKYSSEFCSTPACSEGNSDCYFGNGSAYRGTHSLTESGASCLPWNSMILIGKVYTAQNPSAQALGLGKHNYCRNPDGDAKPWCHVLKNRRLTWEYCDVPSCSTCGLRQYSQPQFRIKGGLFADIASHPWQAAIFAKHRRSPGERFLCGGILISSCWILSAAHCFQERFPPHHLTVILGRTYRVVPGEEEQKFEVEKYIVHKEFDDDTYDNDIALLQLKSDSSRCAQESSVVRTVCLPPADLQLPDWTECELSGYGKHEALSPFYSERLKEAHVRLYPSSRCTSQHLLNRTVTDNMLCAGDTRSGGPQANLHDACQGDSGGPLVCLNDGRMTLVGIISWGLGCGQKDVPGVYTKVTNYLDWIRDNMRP

`CSc1sc(C(=N)N)cc1-c1nc(-c2ccc3c(c2)OCCO3)cs1` [Example 12, 4-[4-(3,4-Ethylenedioxyphenyl)thiazol-2-yl]-5-methylthiothiophene-2-carboxamidine hydrochloride] gave a pKi [1] of 5.14.

In the case of `CSc1sc(C(=N)N)cc1-c1nc(-c2ccc(Cl)cc2)cs1` [Example 1, 4-[4-(4-chlorophenyl)(1,3-thiazol-2-yl)]-5-methylthiothiophene-2-carboxamidine], the pKi [2] was 5.02.

With `CSc1sc(C(=N)N)cc1-c1nc(-c2sc3ccccc3c2Cl)cs1` [Example 119, 4-[4-(3-chlorobenzo[b]thiophen-2-yl)(1,3-thiazol-2-yl)]-5-methylthiothiophene-2-carboxamidine hydrochloride] the pKi [3] was 5.52.

Work on `CSc1sc(C(N)=NC#N)cc1-c1nc(-c2ccccc2)cs1` [Example 94, 3-Amino-2-aza-3-[5-methylthio-4-(4-phenyl(1,3-thiazol-2-yl))(2-thienyl)]prop-2-enenitrile] yielded a pKi [3] of 5.56.

“4-[Bis(phenylsulfonyl)amino]-5-methylthiophene-2-carboxamidine [Example 283]” was tested, and the pKi [4] was 6.03.

With `CSc1sc(C(=N)N)cc1-c1nc(-c2ccc([N+](=O)[O-])cc2)cs1` [Example 11, 5-Methylthio-4-[4-(4-nitrophenyl)(1,3-thiazol-2-yl)]thiophene-2-carboxamidine hydrochloride] the pKi [5] was 5.31.
